Test [1] concerns rat unstripped colonic sheets (enteric nervous system activity).
The nature of test [2]: Serum calcium and phosphorus in mdr1a-/- colitis study. The conditions noted are these: 10 mg/kg PO daily; day 38. In kind it is in vivo, mouse. How it is done:
(§1) All mice were necropsied on day 38 post initial inoculation. Mice were euthanized by CO2 asphyxiation. Blood was obtained by intracardiac puncture and collected in serum separator tubes. Serum was harvested and stored at −80° C. Colons were dissected below the cecum and just above the anus, and the contents of the lumen were removed. Sections of the proximal, middle, and distal colon regions were fixed in 10% neutral buffered formalin for histopathological analysis.
(§2) Serum clinical chemistry analysis was performed on the Olympus AU400 using standard tests and protocols. Calcium and phosphorus measurements were performed on undiluted serum for all samples. Serum cytokines and chemokines were assayed by Lincoplex mouse cytokine/chemokine muliplex immunoassasy (Millipore; Billerica, Mass.) per manufacturer instructions.
(§3) Results for serum analytes were expressed as the mean±standard error of the mean (SEM). A one-way ANOVA with Tukey's post test was performed using GraphPad Prism. A p-value of 0.05 was used in the calculation to determine whether there were significant differences between any two groups. Results for disease onset were expressed as a standard survival curve. A Log-Rank (Mantel-Cox) Test was performed using GraphPad Prism to determine significance. A p-value of 0.05 was used in the calculation to determine whether there were significant differences between any two groups. Results for clinical score and histology score were expressed as the mean±SEM. A Cochran-Mantel-Haenszel mean score test was performed using SAS software. A p-value of 0.05 was used in the calculation to determine whether there were significant differences between any two groups.

The next test deals with IP-10. In words: Serum IP-10 in mdr1a-/- colitis study. In kind it is in vivo, mouse. To be noted: treatment groups vs vehicle treated animals. The protocol: as §1, §2, §3
In test [3] the test system is colitis in mdr1a-/- mice induced by H. bilis. Briefly: Colitis in mdr1a-/- mice infected with Helicobacter bilis (clinical score, disease onset, histology). In kind it is in vivo, mouse.
The test system of test [4] is 5% DSS induced colitis in SJL/J mice. In words: DSS-induced colitis in mice, histopathologic inflammation score of large intestine. In kind it is in vivo, mouse. The conditions noted are these: 5% DSS 9 days, SJL/J mice; oral; Compound B 10 mg/kg, FK 506 1 mg/kg. An excerpt:
Animals. Female SJL/J mice aged 8-10 weeks were used for this study, purchased from Jackson Laboratories (Bar Harbour, Me.). Female Spraque-Dawley rats (approximately 150-300 grams) were purchased from Charles River Laboratories Inc. (Wilmington, Mass.). Mdr1a−/− mice (FVB.129P2-Abcb1a^tm1BorN7), weight 20-21 g, 8 weeks at initiation of experiments, were housed and maintained (5 per cage) in the animal facility at Amgen Washington. All animals were cared for according to the standard protocols of the Amgen Institutional Animal Care and Use Committee.
Chemical reagents. Dextran sodium sulfate (DSS) with molecular mass 36-50 kDa was purchased from ICN Chemicals, Aurora, Ohio. The DSS solution was prepared as a 5% w/v solution in sterile water (Baxter Healthcare Corporation) and sterile filtered through a 0.45 μm filter before being added to drinking water. Water for the negative control groups was similarly filtered. FK506, (also known as Tacrolimus, active ingredient in Prograf®), chemical name [3S-[3R*[E(1S*,3S*,4S*)],4S*,5R*,8S*,9E,12R*,14R*,15S*,16R*,18S*,19S*,26aR*]]-5,6,8,11,12,13,14,15,16,17,18,19,24,25,26,26a-hexadecahydro-5,19-dihydroxy-3-[2-(4-hydroxy-3-methoxycyclohexyl)-1-methylethenyl]-14,16-dimethoxy-4,10,12,18-tetramethyl-8-(2-propenyl)-15,19-epoxy-3H-pyrodi[2,1-c][1,4]oxaazacyclotricosine-1,7,20,21(4H, 23H)-tetrone monohydrate, was used as a positive control for the inflammation treatment. Tacrolimus is a macrolide immunosuppressant produced by Streptomyces tsukubaensis. The solution of FK506 (Prograf®, Astellas) was prepared as follows: 0.1 mg/ml solution in phosphate buffered saline (PBS) was prepared by diluting 5 mg/ml stock solution. The animals were dosed with FK506 at 1 mg/kg in 200 μl of PBS.
Calcimimetic solutions (Compound A, 3-(2-chlorophenyl)-N-((1R)-1-(3-(methyloxy)phenyl)ethyl)-1-propanamine, Compound B, (1R)-N-((6-(methyloxy)-4′-(trifluoromethyl)-3-biphenylyl)methyl)-1-phenylethanamine, Compound C, N-(2-chloro-5-((((1R)-1-phenylethyl)amino)methyl)phenyl)-5-methyl-3-isoxazolecarboxamide, and Compound D, N-(2-chloro-5-((((1R)-1-phenylethyl)amino)methyl)phenyl)-2-pyridinecarboxamide) were formulated and dosed in free base equivalents at volumes determined by the pharmacologist. Formulation vehicle was 20% (w/v) Captisol (β-Cyclodextrin Sulfobutyl Ether Sodium Salt, Research Grade from CyDex, Inc.) in water with a final pH of 2.0-2.2 at room temperature, adjusted with HCl and NaOH as required. Final concentrations of DMSO never exceeded 0.1% (v/v).
DSS colitis in mice. All experiments were performed on groups of 8 to 10 SJL-J mice, housed in the same cage. For disease induction, mice were given a 5% DSS ad libitum as drinking water for 9 days.
Postmortem evaluation. Mice and rats were euthanized by CO2 asphyxiation. The large intestine were removed from the carcass, evaluated for gross lesions and three individual non-adjacent segments of proximal, middle and distal large intestine 2 centimeters long were immersed in the Zinc Formalin fix for 24 hours. At the end of 24 hours the sections were washed with tap water and put into 70% ethanol. Each section was then cut into three 3 mm pieces (9 pieces per animal), processed into paraffin blocks, and sections were cut in 5 μm sections and stained with hematoxylin and eosin.
Histopathologic changes of the proximal, middle, and distal small and large intestine was scored as a global assessment of inflammation based on inflammatory infiltrate, edema, mucosal erosions or ulcerations as described in Table 6.
For disease induction, treated mice were given 5% DSS in water ad libitum as drinking water for 9 days as described in Example 1 and were concurrently treated orally during that period with one of the treatments listed in Table 8.
FIG. 1 and Table 8 summarize the effect of the calcimimetic compound B on colonic inflammation in 5% DSS induced colitis. Animals were euthanized with carbon dioxide on day nine post treatment. […]

Where [5] appears, read: Compound A 10 μM, bumetanide 100 μM, proximal and distal colon.
Where [6] appears, read: 10 mg/kg PO daily, day 38, score 0-4.

The source of these data is patent US8093299B2, “Methods of treating bowel disorders” (Amgen Inc., priority 2007, dated 2012).

“And” between values parts separate entries of the source, which are not always exact repeats. Equal entries are not always repeated. Where two headings read alike, the source gives them in different places.

In the case of `COc1cccc([C@@H](C)NCCCc2ccccc2Cl)c1` [Compound A, 3-(2-chlorophenyl)-N-((1R)-1-(3-(methyloxy)phenyl)ethyl)-1-propanamine], in test [1] (setting [5]), the “short-circuit current, subsequent addition after 2 μM TTX” value was “no additional effect”. Further, the “secretory short-circuit current, agent added first” value in test [1] (over 15 minutes, proximal and distal colon, TTX 2 μM, Compound A 10 μM) is given as “inhibited the secretory short-circuit current”.
As to `CCCCNc1cc(C(=O)O)cc(S(N)(=O)=O)c1Oc1ccccc1` [bumetanide, Bumetanide], the “short-circuit current, subsequent addition after 2 μM TTX” value in test [1] (setting [5]) is “no additional effect”. Also, the “short-circuit current, subsequent addition after 10 μM Compound A” value in test [1] (TTX 2 μM, bumetanide 100 μM, proximal and distal colon) is given as “no additional effect”.
On to `COc1ccc(CN[C@@H](C)c2ccccc2)cc1-c1ccc(C(F)(F)F)cc1` [S-Compound B], for which, in test [2], the “serum calcium levels compared to any other group” value is “not statistically different” and the “serum phosphorus compared to CTLA4 treated animals” value is “significant reduction”. The “elevation of serum IP-10” value with IP-10 was “less elevation”. Also, the “day on which animals began showing clinical symptoms (disease onset)” value in test [3] (10 mg/kg PO daily) amounted to 27 days. In test [3] (10 mg/kg PO daily, day 27, n=5), the “number of animals with clinical signs of disease at onset day” value was “two”. Further, in test [3] (10 mg/kg PO daily, day 38), the “Average LI score” value was found to be 1.8; the “GI Inflammation LI DISTAL, Segment Mean” value turned out to be 0.60; the “GI Inflammation LI MIDDLE, Segment Mean” value turned out to be 0.60; the “GI Inflammation LI PROXIMAL, Segment Mean” value amounted to 0.60. Also, the “Total LI score (Max = 12), individual animals” value in test [3] (10 mg/kg PO daily, day 38) is 0 (4×) and 9. For the same compound, in test [3] (setting [6]), the “GI Inflammation LI DISTAL, individual animals” value was 0 (4×) and 3; the “GI Inflammation LI MIDDLE, individual animals” value was 0 (4×) and 3; the “GI Inflammation LI PROXIMAL, individual animals” value was 0 (4×) and 3. Also, the “clinical score of the animal with clinical symptoms (max 8)” value in test [3] (10 mg/kg PO daily, final day) turned out to be 4. For the same compound, in test [3] (R-Compound B 10 and 3 mg/kg groups, S-Compound B 10 mg/kg), the “total large intestine (LI) scores of the colitic animals (max 12)” value worked out at 9. Also, the “number of animals with clinical symptoms of disease on the final day of the study” value in test [3] (day 38, per treatment group (S-Compound B 10 mg/kg, n=5; R-Compound B 10 mg/kg and 3 mg/kg, n=10 each)) was “one”. Besides, the “animals with colitis / colon pathology by histology” value in test [3] (per group: R-Compound B 10 and 3 mg/kg each, S-Compound B 10 mg/kg) is recorded as 1 out of 5.
For `NC1=N[C@H](O)[C@H]2[C@H]3O[C@]4(O)O[C@@H]([C@@H](O)[C@@]2(N1)[C@@H]4O)[C@]3(O)CO` [TTX, Tetrodotoxin], in test [1], the “secretory short-circuit current, agent added first” value is “inhibited the secretory short-circuit current” and the “short-circuit current, subsequent addition after 10 μM Compound A” value is “no additional effect”.
As for `C=CC[C@@H]1/C=C(\C)C[C@H](C)C[C@H](OC)[C@H]2O[C@@](O)(C(=O)C(=O)N3CCCC[C@H]3C(=O)O[C@H](/C(C)=C/[C@@H]3CC[C@@H](O)[C@H](OC)C3)[C@H](C)[C@@H](O)CC1=O)[C@H](C)C[C@@H]2OC` (relative stereo) [FK 506, [3S-[3R*[E(1S*,3S*,4S*)],4S*,5R*,8S*,9E,12R*,14R*,15S*,16R*,18S*,19S*,26aR*]]-5,6,8,11,12,13,14,15,16,17,18,19,24,25,26,26a-hexadecahydro-5,19-dihydroxy-3-[2-(4-hydroxy-3-methoxycyclohexyl)-1-methylethenyl]-14,16-dimethoxy-4,10,12,18-tetramethyl-8-(2-propenyl)-15,19-epoxy-3H-pyrodi[2,1-c][1,4]oxaazacyclotricosine-1,7,20,21(4H, 23H)-tetrone monohydrate, reference compound], in test [4], the “Animals with colonic inflammation/total animals” value is 10/10.
